Assay results published in publication PMC8072890, “Aminoalkylamides of Eremomycin Exhibit an Improved Antibacterial Activity” (Pharmaceuticals, 2021).

How the values were obtained:
[1] = tested on: S. aureus R-2; type: cell-based; conditions: sensitive strain; broth dilution micromethod, CLSI; modal values (or range) of 3–5 independent tests
Text: (§1) The antimicrobial activity of semisynthetic derivatives of eremomycin 4a–q was studied in comparison with vancomycin on a wide panel of Gram-positive bacteria sensitive (Staphylococcus aureus ATCC 29213, S. aureus R-2, S. haemoliticus 602, S. pneumoniae ATCC 6305, Enteroccus faecium 4, and E. faecalis 559) and resistant to vancomycin (S. aureus 3797, S.aureus 3798, E. faecium 2, E. faecium 3576, E. faecalis 9, E. faecalis 583, and E. gallinarum BΠ 4147), information about the strains given in Table S3. The minimum microbial inhibitory concentration (MIC) for the test compounds was determined by the broth dilution micromethod according to CLSI guidelines, and vancomycin and a standard strain S. aureus ATCC 29213 used as controls (Figure 2 and Tables S4 and S5).
(§2) Table S4. Antibacterial activity of vancomycin and derivatives 4a–q against sensitive Gram-positive bacteria.
(§3) Strain/MIC (Minimum inhibitory concentration, μg/ml)*
(§4) Compound m n R S.aureus АТСС S.aureus R-2 S.haemoliticus S.pneumoniae АТСС E. faecium 4 E. faecalis 559
(§5) *MICs are presented as modal values for 3–5 independently replicated MIC tests for each strain and for the antibiotics. In the range of the
(§6) obtained MIC values, the obtained modal values are highlighted in bold.

[2] = tested on: E. faecium 4; type: cell-based; conditions: sensitive strain; broth dilution micromethod, CLSI; modal values (or range) of 3–5 independent tests
Text: as §1, §2, §3, §4, §5, §6

[3] = tested on: Staphylococcus aureus ATCC 29213; type: cell-based; conditions: vancomycin-sensitive control strain; broth dilution micromethod, CLSI; modal values (or range) of 3–5 independent tests
Text: as §1, §2, §3, §4, §5, §6

[4] = tested on: E. faecalis 559; type: cell-based; conditions: sensitive strain; broth dilution micromethod, CLSI; modal values (or range) of 3–5 independent tests
Text: as §1, §2, §3, §4, §5, §6

[5] = tested on: S. haemoliticus 602; type: cell-based; conditions: sensitive strain; broth dilution micromethod, CLSI; modal values (or range) of 3–5 independent tests
Text: as §1, §2, §3, §4, §5, §6

[6] = tested on: S. pneumoniae ATCC 6305; test: MIC, broth dilution micromethod (CLSI); type: cell-based; conditions: sensitive strain, modal values (or range) of 3–5 independent tests
Text: as §1, §2, §3, §4, §5, §6

[7] = tested on: E. faecalis 583; type: cell-based; conditions: strain resistant to vancomycin; broth dilution micromethod, CLSI; modal values (or range) of 3–5 independent tests
Text: as §1
(§7) Table S5. Antibacterial activity of vancomycin and derivatives 4a–q against resistant Gram-positive bacteria.
(§8) Strain/MIC (minimum inhibitory concentration; μg/ml)
(§9) Compound m n R S.aureus 3797 S.aureus 3798 E. faecium 2 E. faecium 3576 E. faecalis 9 E. faecalis 583 E. gallinarum
(§10) *MICs are presented as modal values for 3–5 independently replicate MIC tests for each strain and for the antibiotics. In the range of the obtained MIC
(§11) values, the obtained modal values are highlighted in bold.

[8] = tested on: E. faecium 2; type: cell-based; conditions: strain resistant to vancomycin; broth dilution micromethod, CLSI; modal values (or range) of 3–5 independent tests
Text: as §1, §7, §8, §9, §10, §11

[9] = tested on: E. faecalis 9; type: cell-based; conditions: strain resistant to vancomycin; broth dilution micromethod, CLSI; modal values (or range) of 3–5 independent tests
Text: as §1, §7, §8, §9, §10, §11

[10] = tested on: S. aureus 3797; type: cell-based; conditions: strain resistant to vancomycin; broth dilution micromethod, CLSI; modal values (or range) of 3–5 independent tests
Text: as §1, §7, §8, §9, §10, §11

[11] = tested on: S.aureus 3798; type: cell-based; conditions: strain resistant to vancomycin; broth dilution micromethod, CLSI; modal values (or range) of 3–5 independent tests
Text: as §1, §7, §8, §9, §10, §11

[12] = tested on: E. faecium 3576; type: cell-based; conditions: strain resistant to vancomycin; broth dilution micromethod, CLSI; modal values (or range) of 3–5 independent tests
Text: as §1, §7, §8, §9, §10, §11

[13] = tested on: E. gallinarum BΠ 4147; type: cell-based; conditions: strain resistant to vancomycin; broth dilution micromethod, CLSI; modal values (or range) of 3–5 independent tests
Text: as §1, §7, §8, §9, §10, §11

[14] = tested on: S. aureus (strain 10, clinical isolate); test: Mouse staphylococcal sepsis model, single IV administration; type: in vivo, mice (SHK colony); conditions: for Survival: single IV, 30 min after infection, n = 10
Description: A comparative study of the efficacy of eremomycin N-(2-((2-fluorobenzyl)amino)ethyl)amide (4e) and vancomycin was carried out in a mice staphylococcal sepsis model. Healthy female mice of the SHK colony weighing 20–22 g after two-week quarantine were randomized into groups (n = 10) and received S. aureus as the infectious agent (strain 10, clinical isolate, adapted for growth in vivo by five-fold passaging in mice). In the experiment, female mice of the SHK colony weighing 20–22 g were used. S. aureus (strain 10, clinical isolate), adapted for growth in vivo by five-fold passaging in mice, was used as the infectious agent. Initially, the lethal dose (LD100) of staphylococcus was determined for this mouse line using the intravenous infection route. The mice deaths were counted daily for 10 days. Thus, the lethal dose (LD100) was defined as 8 × 10^8 CFU/mouse. Afterwards, the mice were seated in cages of 10 heads and were infected intravenously with S. aureus at a lethal dose, and the efficacy of the tested drugs was determined by the ED50 value (i.e., the dose at which 50% of the experimental animals survive). Then, 30 min after infection, the mice were injected intravenously with eremomycin N-(2-((2-fluorobenzyl)amino)ethyl)amide (4e) at single doses from 0.1 to 2.5 mg/kg. or vancomycin at doses from 2.5 to 7.5 mg/kg. As a control dose, a group of untreated animals infected with a lethal dose of S. aureus was present in the experiment. The determination of ED50 of the tested compounds was carried out in one experiment under a single control using the Behrens method.

| Substance | MIC S.aureus R-2 [1] | MIC E. faecium 4 [2] | MIC S.aureus ATCC 29213 [3] | MIC E. faecalis 559 [4] | MIC S.haemoliticus 602 [5] | MIC S.pneumoniae ATCC 6305 [6] | MIC E. faecalis 583 [7] | MIC E. faecium 2 [8] | MIC E. faecalis 9 [9] | MIC S.aureus 3797 [10] | MIC S.aureus 3798 [11] | MIC E. faecium 3576 [12] | MIC E. gallinarum ВП 4147 [13] | Survival ([14]; dose 0.5 mg/kg) | Survival ([14]; dose 1.5 mg/kg) | Survival ([14]; dose 2.5 mg/kg) | Survival ([14]; dose 3.5 mg/kg) | Survival ([14]; dose 4.5 mg/kg) | Survival ([14]; dose 5.5 mg/kg) | ED50 ([14]; mice infected IV with lethal dose of S. aureus (8 × 10^8 CFU/mouse), single IV dose 30 min after infection, n = 10 per group, observed 14 days, Behrens method) |
| --- | --- | --- | --- | --- | --- | --- | --- | --- | --- | --- | --- | --- | --- | --- | --- | --- | --- | --- | --- | --- |
| Eremomycin N-(2-((4-fluorobenzyl)amino)ethyl)amide [4h] | 0.06 µg/mL | 0.25 µg/mL | 0.25 µg/mL | 0.125 µg/mL | 0.25 µg/mL | 0.01 µg/mL | 0.5 to 1 µg/mL | 0.5 µg/mL | 0.03 µg/mL | 0.25 µg/mL | 0.5 µg/mL | 2 µg/mL | 0.5 to 1 µg/mL |  |  |  |  |  |  |  |
| Eremomycin N-(2-((4-methoxybenzyl)amino)ethyl)amide [4d] | 0.06 µg/mL | 0.25 µg/mL | 0.03 µg/mL | 0.5 µg/mL | 0.25 µg/mL | 0.01 µg/mL | 0.5 µg/mL | 0.5 µg/mL | 0.03 µg/mL | 0.5 µg/mL | 0.5 to 1 µg/mL | 0.5 to 1 µg/mL | 1 µg/mL |  |  |  |  |  |  |  |
| Eremomycin N-(2-((2-chloro-6-fluorobenzyl)ethyl)amide [4m] | 0.125 to 0.25 µg/mL | 0.5 µg/mL | 0.25 µg/mL | 0.5 to 1 µg/mL | 0.125 µg/mL | 0.06 µg/mL | 1 µg/mL | 1 µg/mL | 0.25 to 0.5 µg/mL | 2 µg/mL | 2 µg/mL | 2 µg/mL | 2 µg/mL |  |  |  |  |  |  |  |
| Eremomycin N-(2-((4-trifluoromethylbenzyl)amino)ethyl)amide [4q] | 2 µg/mL | 1 µg/mL | 1 µg/mL | 2 µg/mL | 0.5 µg/mL | 0.01 µg/mL | 4 µg/mL | 1 to 2 µg/mL | 0.25 µg/mL | 2 µg/mL | 2 µg/mL | 4 µg/mL | 4 µg/mL |  |  |  |  |  |  |  |
| Eremomycin N-(2-(benzylamino)ethyl)amide [4a] | 0.03 µg/mL | 0.25 to 0.5 µg/mL | 0.25 µg/mL | 0.25 µg/mL | 0.5 µg/mL | 0.25 µg/mL | 0.5 µg/mL | 1 µg/mL | 0.06 µg/mL | 0.5 µg/mL | 0.5 to 1 µg/mL | 1 to 2 µg/mL | 1 µg/mL |  |  |  |  |  |  |  |
| Eremomycin N-(2-((3,4-dichlorobenzyl)amino)ethyl)amide [4o] | 1 µg/mL | 1 µg/mL | 1 µg/mL | 2 µg/mL | 0.5 µg/mL | 0.5 µg/mL | 2 µg/mL | 2 µg/mL | 0.25 to 0.5 µg/mL | 2 µg/mL | 1 to 2 µg/mL | 2 µg/mL | 2 µg/mL |  |  |  |  |  |  |  |
| Eremomycin N-(2-phenethylamino)ethyl)amide [4b] | 0.06 µg/mL | 0.5 µg/mL | 0.5 µg/mL | 0.5 µg/mL | 0.5 µg/mL | 0.01 µg/mL | 0.5 µg/mL | 1 µg/mL | 0.06 µg/mL | 1 µg/mL | 2 µg/mL | 2 µg/mL | 1 µg/mL |  |  |  |  |  |  |  |
| Eremomycin N-(2-((3,5-difluorobenzyl)amino)ethyl)amide [4k] | 0.125 to 0.25 µg/mL | 0.5 µg/mL | 0.25 µg/mL | 0.5 µg/mL | 0.125 µg/mL | 0.01 µg/mL | 1 µg/mL | 1 µg/mL | 0.06 µg/mL | 0.5 µg/mL | 1 µg/mL | 1 µg/mL | 1 µg/mL |  |  |  |  |  |  |  |
| Eremomycin N-(2-((4-chlorobenzyl)amino)ethyl)amide [4i] | 0.25 µg/mL | 0.25 µg/mL | 0.125 to 0.25 µg/mL | 0.5 µg/mL | 0.25 µg/mL | 00.03 µg/mL | 0.5 to 1 µg/mL | 0.5 µg/mL | 0.06 µg/mL | 0.25 to 0.5 µg/mL | 1 µg/mL | 1 µg/mL | 0.5 µg/mL |  |  |  |  |  |  |  |
| Eremomycin N-(2-((2,6-difluorobenzyl)amino)ethyl)amide [4j] | 0.06 µg/mL | 0.25 to 0.5 µg/mL | 0.03 to 0.06 µg/mL | 0.25 µg/mL | 0.125 µg/mL | 0.03 µg/mL | 0.5 µg/mL | 0.5 to 1 µg/mL | 0.03 µg/mL | 0.5 µg/mL | 1 µg/mL | 1 µg/mL | 1 µg/mL |  |  |  |  |  |  |  |
| Eremomycin N-(2-((2-fluorobenzyl)amino)propyl)amide [4f] | 0.03 µg/mL | 0.25 µg/mL | 0.125 µg/mL | 0.25 to 0.5 µg/mL | 0.25 to 0.5 µg/mL | 0.03 µg/mL | 1 µg/mL | 1 µg/mL | 0.06 µg/mL | 0.5 µg/mL | 2 µg/mL | 1 µg/mL | 0.5 µg/mL |  |  |  |  |  |  |  |
| Eremomycin |  |  |  |  |  |  |  |  |  |  |  |  |  | 20% | 40% | 80% | 80% | 100% | 100% | 1.8 mg/kg |
